Here are results for eleven compounds from paper PMC9924227, “IFITM proteins assist cellular uptake of diverse linked chemotypes” (Science (New York, N.Y.), 2022).

Read-outs that look alike come from different tables or passages of the source.

Holding throughout (assay): cells
In one assay the test system is T1, K562.
T1 construct: engineered with CRISPRi or CRISPRa machinery, no sgRNA
Also noted: dose-response cell viability assay in K562 CRISPRi/CRISPRa CML cells, IC50. Particulars: Homo sapiens, read-out: Cell viability IC50 (nM) / No sgRNA. The source says:
To further examine the breadth of linked chemotypes that might be assisted by IFITMs, we designed, synthesized, and characterized a new linked molecular glue inhibitor based on the natural product rocaglamide. Rocaglamide clamps the EIF4A1 helicase to 5’ untranslated regions (UTRs) of target mRNAs to inhibit the translation of downstream sequences ([64]). […] We reasoned that dimerization of rocaglamide through its amide position could be a chemically tractable means to simultaneously engage two proximal EIF4A1-RNA complexes within the cell. We designed a molecule, BisRoc-1 (fig. S9B), that links two rocaglamide monomers together with a linker length (35 heavy atoms) exceeding the distance separating two rocaglamide binding sites in the crystal structure (fig. S9A). […] Additionally, we evaluated the relationship between linker length and IFITM assistance by examining an analog series consisting of BisRoc-1 (PEG11), BisRoc-2 (PEG4), BisRoc-3 (PEG2), and rocaglamide (no linker) (fig. S9E). We treated our K562 CRISPRi and CRISPRa cells with these inhibitors and evaluated differences in potency resulting from IFITM expression modulation, as measured by half-maximal inhibitory concentration (IC50) shift in a cell viability assay (fig. S9, E and F, and data file S7). […] Given the ubiquitous presence of IFITMs in cells, we hypothesized that the cellular uptake of other linked inhibitors in the literature could also be assisted by IFITMs. While not generally as large as the linked chemotypes described above, PROTACs are likewise composed of two chemical entities covalently attached by a flexible tether ([16]). Thus, we included four PROTACs (GMB-475, MZ1, BETd-260, and dBET6) and their non-linked parent inhibitors in an expanded survey of chemical-genetic interactions with IFITMs (Fig. 4A, fig. S10, and table S1). These compounds were evaluated in the same IFITM dependency analysis as the BisRoc linker series (Fig. 4B and data file S7). Using RapaLink-1 as a chemical benchmark, we observed that IFITM1, IFITM2, and IFITM3 overexpression sensitized cells to linked chemotypes (Fig. 4B; compounds 9-17). The inverse finding, resistance to linked chemotypes, resulted from gene knockdown (Fig. 4B). The trend observed in the BisRoc series was corroborated across the 9 bivalent molecules tested (Fig. 4B): the magnitudes of chemical-genetic interactions correlated with linker length which is reflected in inhibitor size (molecular weight) and flexibility (number of rotatable bonds). Linked chemotypes with long linkers were more IFITM-assisted than linked chemotypes with short linkers, and non-linked chemotypes (Fig. 4B; compounds 1-8) were not observed to be assisted by IFITMs (Fig. 4B). Despite their cellular activities, the physicochemical properties of the linked chemotypes largely violate Lipinski’s ([1]) and Veber’s ([2]) classic guidelines (Fig. 4, A to C, and table S1), raising the need for a revised drug design framework that considers IFITM-assisted uptake and other cellular import processes.  Fig. 4. IFITMs assist the cellular activity of diverse linked chemotypes. (A) Heavy atom skeletons of compounds assessed for IFITM assistance (see also fig. S10 for chemical structures). Compounds were categorized as non-linked chemotypes (compounds 1–8, black), linked chemotypes with short linkers (compounds 9–14, gray), or linked chemotypes with long linkers (compounds 15–17, green). (B) Chemical-genetic interaction map of inhibitors in (A) with IFITM1, IFTM2, and IFITM3. Potency, as measured by dose-response IC50 in a cell viability assay (see also Fig. 1F, Fig. 3D, or fig. S9D for example source data), was normalized to that of non-sgRNA-expressing K562 CRISPRi or CRISPRa cells. Physicochemical properties, including molecular weight (MW) and number of rotatable bonds, with their respective traditional thresholds for drug-likeness are indicated (right). Data represent means of three biological replicates. […]

The test system of the next assay is K562 CRISPRa. Details: Cell viability dose-response in K562 CRISPRi/CRISPRa cells; IC50 from fitted curve. The settings on record: Homo sapiens; sheet K562 CRISPRa IC50;; non-targeting control sgRNA; read-out: Cell viability IC50 (nM) / NegCtrl sg. The source says:
(§1) To further examine the breadth of linked chemotypes that might be assisted by IFITMs, we designed, synthesized, and characterized a new linked molecular glue inhibitor based on the natural product rocaglamide. Rocaglamide clamps the EIF4A1 helicase to 5’ untranslated regions (UTRs) of target mRNAs to inhibit the translation of downstream sequences ([64]). […] We reasoned that dimerization of rocaglamide through its amide position could be a chemically tractable means to simultaneously engage two proximal EIF4A1-RNA complexes within the cell. We designed a molecule, BisRoc-1 (fig. S9B), that links two rocaglamide monomers together with a linker length (35 heavy atoms) exceeding the distance separating two rocaglamide binding sites in the crystal structure (fig. S9A). […] Additionally, we evaluated the relationship between linker length and IFITM assistance by examining an analog series consisting of BisRoc-1 (PEG11), BisRoc-2 (PEG4), BisRoc-3 (PEG2), and rocaglamide (no linker) (fig. S9E). We treated our K562 CRISPRi and CRISPRa cells with these inhibitors and evaluated differences in potency resulting from IFITM expression modulation, as measured by half-maximal inhibitory concentration (IC50) shift in a cell viability assay (fig. S9, E and F, and data file S7). […] IFITMs assist the cellular activity of diverse linked chemotypes. (A) Heavy atom skeletons of compounds assessed for IFITM assistance (see also fig. S10 for chemical structures). Compounds were categorized as non-linked chemotypes (compounds 1–8, black), linked chemotypes with short linkers (compounds 9–14, gray), or linked chemotypes with long linkers (compounds 15–17, green). (B) Chemical-genetic interaction map of inhibitors in (A) with IFITM1, IFTM2, and IFITM3. Potency, as measured by dose-response IC50 in a cell viability assay (see also Fig. 1F, Fig. 3D, or fig. S9D for example source data), was normalized to that of non-sgRNA-expressing K562 CRISPRi or CRISPRa cells. Physicochemical properties, including molecular weight (MW) and number of rotatable bonds, with their respective traditional thresholds for drug-likeness are indicated (right). Data represent means of three biological replicates. (C) Map of chemical space populated by 304 kinase inhibitors in clinical development (black), 3270 PROTACs reported in the literature (gray), and 3 linked chemotypes described herein (green). Boundaries represent traditional guidelines for drug-likeness.

The next assay concerns K562 CRISPRi. Details: Cell viability dose-response in K562 CRISPRi/CRISPRa cells; IC50 from fitted curve. Particulars: Homo sapiens, non-targeting control sgRNA, read-out: Cell viability IC50 (nM) / NegCtrl sg.
From the text: as §1

Where [1] appears, read: sheet K562 CRISPRa IC50, no sgRNA.

For `COc1ccc([C@@]23Oc4cc(OC)cc(OC)c4[C@]2(O)[C@H](O)[C@H](C(=O)N(C)C)[C@H]3c2ccccc2)cc1` [Rocaglamide], the IC50 was found to be 7.65 nM with K562 (setting [1]); 7.23 nM in the assay on K562 (Cells=K562 CRISPRi, no sgRNA); 6.97 nM in the assay with K562 CRISPRa; 6.86 nM in the assay with K562 CRISPRi.

Turning to `CC(C)n1nc(-c2ccc3oc(N)nc3c2)c2c(N)ncnc21` [Sapanisertib], the IC50 was determined as 14.2 nM in the assay with K562 (setting [1]); 24.6 nM with K562 (Cells=K562 CRISPRi, no sgRNA); 15.3 nM with K562 CRISPRa; 24.4 nM in the assay with K562 CRISPRi.

As to `CO[C@@H]1C[C@@H]2CC[C@@H](C)[C@@](O)(O2)C(=O)C(=O)N2CCCC[C@@H]2C(=O)O[C@H]([C@H](C)C[C@H]2CC[C@H](OCCOCc3cn(CCOCCOCCOCCOCCOCCOCCOCCOCCC(=O)NCCCCn4nc(-c5ccc6oc(N)nc6c5)c5c(N)ncnc54)nn3)[C@H](OC)C2)CC(=O)[C@H](C)/C=C(/C)[C@H](O)[C@@H](OC)C(=O)[C@H](C)C[C@H](C)\C=C/C=C\C=C/1C` (stereo in doubt) [RapaLink-1], the IC50 in the assay with K562 (setting [1]) was 2.23 nM; in the assay with K562 (Cells=K562 CRISPRi, no sgRNA) it was 1.19 nM; in the assay on K562 CRISPRa, 2.07 nM; in the assay with K562 CRISPRi, 1.25 nM.

`Cc1sc2c(c1C)C(c1ccc(Cl)cc1)=N[C@@H](CC(=O)NCCCCCCCCNC(=O)COc1cccc3c1C(=O)N(C1CCC(=O)NC1=O)C3=O)c1nnc(C)n1-2` (some centres unmarked) [dBET6]: the IC50 with K562 (setting [1]) turned out to be 3.26 nM; with K562 (Cells=K562 CRISPRi, no sgRNA), 11.7 nM; in the assay on K562 CRISPRa, 3.04 nM; with K562 CRISPRi it was 12.6 nM.

Consider `Cc1ncsc1-c1ccc(CNC(=O)[C@@H]2C[C@@H](O)CN2C(=O)[C@@H](NC(=O)COCCOCCOCCNC(=O)C[C@@H]2N=C(c3ccc(Cl)cc3)c3c(sc(C)c3C)-n3c(C)nnc32)C(C)(C)C)cc1` [MZ1], for which the IC50 is 31.4 nM in the assay on K562 (setting [1]); 135 nM in the assay on K562 (Cells=K562 CRISPRi, no sgRNA); 33.3 nM in the assay with K562 CRISPRa; 146 nM in the assay on K562 CRISPRi.

Take `NC(=O)c1cccc(-c2cc(Nc3ccc(OC(F)(F)F)cc3)ncn2)c1` [GNF-2]: the IC50 is 202 nM in the assay with K562 (setting [1]); 291 nM in the assay with K562 (Cells=K562 CRISPRi, no sgRNA); 205 nM with K562 CRISPRa; 284 nM in the assay on K562 CRISPRi.

Take `CCn1nc(C2CC2)cc1Nc1nc(C(=O)NCCCCCc2cccc3c2CN(C2CCC(=O)NC2=O)C3=O)nc2[nH]c3cc(-c4c(C)noc4C)c(OC)cc3c12` (centres unmarked) [BETd-260]: the IC50 in the assay on K562 (setting [1]) was determined as 1.15 nM; with K562 (Cells=K562 CRISPRi, no sgRNA), 3.79 nM; with K562 CRISPRa, 1.04 nM; in the assay with K562 CRISPRi, 3.88 nM.

`Cc1ncsc1-c1ccc(CNC(=O)[C@@H]2C[C@@H](O)CN2C(=O)[C@@H](NC(=O)COCCOc2ccc(-c3cc(Nc4ccc(OC(F)(F)F)cc4)ncn3)cc2)C(C)(C)C)cc1` [GMB-475]: the IC50 in the assay on K562 (setting [1]) is 212 nM; in the assay with K562 (Cells=K562 CRISPRi, no sgRNA), 264 nM; in the assay on K562 CRISPRa, 179 nM; in the assay with K562 CRISPRi, 249 nM.

For the compound `CO[C@H]1C[C@@H]2CC[C@@H](C)[C@@](O)(O2)C(=O)C(=O)N2CCCC[C@H]2C(=O)O[C@H]([C@H](C)C[C@@H]2CC[C@@H](O)[C@H](OC)C2)CC(=O)[C@H](C)/C=C(\C)[C@@H](O)[C@@H](OC)C(=O)[C@H](C)C[C@H](C)/C=C/C=C/C=C/1C` [Rapamycin], the IC50 was determined as 0.356 nM in the assay with K562 (setting [1]); 0.743 nM in the assay with K562 (Cells=K562 CRISPRi, no sgRNA); 0.376 nM in the assay with K562 CRISPRa; 0.776 nM in the assay on K562 CRISPRi.

Turning to `Cc1sc2c(c1C)C(c1ccc(Cl)cc1)=N[C@@H](CC(=O)OC(C)(C)C)c1nnc(C)n1-2` [JQ1], the IC50 in the assay on K562 (setting [1]) amounted to 24.4 nM; in the assay on K562 (Cells=K562 CRISPRi, no sgRNA) it was 118 nM; with K562 CRISPRa, 22.2 nM; in the assay with K562 CRISPRi it was 121 nM.

As to `CCn1nc(C2CC2)cc1Nc1nc(C(=O)NC)nc2[nH]c3cc(-c4c(C)noc4C)c(OC)cc3c12` [HJB97], the IC50 turned out to be 11.6 nM in the assay on K562 (setting [1]); 46.8 nM with K562 (Cells=K562 CRISPRi, no sgRNA); 9.74 nM with K562 CRISPRa; 41.5 nM with K562 CRISPRi.
